Details: Liquid, Vibrating tube method

CCCCCCCCCC [decane]
Details | mass density [kg/m3]
303.15 K, 32305 kPa | 745.4
303.15 K, 32325 kPa | 745.3
303.15 K, 32357 kPa | 745.5
303.15 K, 32384 kPa | 745.5
303.15 K, 32413 kPa | 745.5
303.15 K, 32436 kPa | 745.5
303.15 K, 32459 kPa | 745.5
303.15 K, 32482 kPa | 745.5
303.15 K, 32502 kPa | 745.6
303.15 K, 32522 kPa | 745.4
303.15 K, 32543 kPa | 745.6
303.15 K, 32563 kPa | 745.6
303.15 K, 32588 kPa | 745.6
303.15 K, 32611 kPa | 745.7
303.15 K, 32637 kPa | 745.6
303.15 K, 32667 kPa | 745.7
303.15 K, 32691 kPa | 745.7
303.15 K, 32718 kPa | 745.7
303.15 K, 32741 kPa | 745.7
303.15 K, 32758 kPa | 745.8
303.15 K, 32788 kPa | 745.8
303.15 K, 32812 kPa | 745.8
303.15 K, 32840 kPa | 745.9
303.15 K, 32864 kPa | 745.9
303.15 K, 32892 kPa | 745.8
303.15 K, 32923 kPa | 745.8
303.15 K, 32943 kPa | 745.9
303.15 K, 32971 kPa | 745.9
303.15 K, 32989 kPa | 745.9
303.15 K, 33010 kPa | 745.9
303.15 K, 33031 kPa | 746
303.15 K, 33062 kPa | 746
303.15 K, 33093 kPa | 746
303.15 K, 33114 kPa | 746
303.15 K, 33138 kPa | 746.1
303.15 K, 33163 kPa | 746
303.15 K, 33184 kPa | 746
303.15 K, 33212 kPa | 746.1
303.15 K, 33230 kPa | 746.1
303.15 K, 33258 kPa | 746.1
303.15 K, 33286 kPa | 746
303.15 K, 33314 kPa | 746.1
303.15 K, 33339 kPa | 746.1
303.15 K, 33364 kPa | 746
303.15 K, 33389 kPa | 746.1
303.15 K, 33424 kPa | 746.1
303.15 K, 33458 kPa | 746.1
303.15 K, 33487 kPa | 746.2
303.15 K, 33512 kPa | 746.2
303.15 K, 33545 kPa | 746.2
303.15 K, 33566 kPa | 746.3
303.15 K, 33588 kPa | 746.3
303.15 K, 33621 kPa | 746.3
303.15 K, 33642 kPa | 746.3
303.15 K, 33676 kPa | 746.4
303.15 K, 33697 kPa | 746.3
303.15 K, 33719 kPa | 746.4
303.15 K, 33741 kPa | 746.4
303.15 K, 33764 kPa | 746.3
303.15 K, 33790 kPa | 746.4
303.15 K, 33816 kPa | 746.4
303.15 K, 33848 kPa | 746.4
303.15 K, 33871 kPa | 746.4
303.15 K, 33904 kPa | 746.4
303.15 K, 33923 kPa | 746.4
303.15 K, 33961 kPa | 746.4
303.15 K, 33984 kPa | 746.6
303.15 K, 34018 kPa | 746.6
303.15 K, 34044 kPa | 746.5
303.15 K, 34068 kPa | 746.5
303.15 K, 34100 kPa | 746.6
303.15 K, 34124 kPa | 746.5
303.15 K, 34151 kPa | 746.6
303.15 K, 34180 kPa | 746.5
303.15 K, 34218 kPa | 746.6
303.15 K, 34247 kPa | 746.6
303.15 K, 34265 kPa | 746.8
303.15 K, 34284 kPa | 746.8
303.15 K, 34306 kPa | 746.8
303.15 K, 34332 kPa | 746.7
303.15 K, 34354 kPa | 746.7
303.15 K, 34372 kPa | 746.8
303.15 K, 34395 kPa | 746.7
303.15 K, 34422 kPa | 746.8
303.15 K, 34443 kPa | 746.9
303.15 K, 34449 kPa | 746.8
303.16 K, 4203 kPa | 725.7
303.16 K, 4220 kPa | 725.6
303.16 K, 4238 kPa | 725.7
303.16 K, 4251 kPa | 725.8
303.16 K, 4264 kPa | 725.7
303.16 K, 4275 kPa | 725.6
303.16 K, 4290 kPa | 725.8
303.16 K, 4305 kPa | 725.8
303.16 K, 4325 kPa | 725.8
303.16 K, 4341 kPa | 725.8
303.16 K, 4354 kPa | 725.8
303.16 K, 4367 kPa | 725.9
303.16 K, 4380 kPa | 725.8
303.16 K, 4395 kPa | 725.9
303.16 K, 4407 kPa | 725.9
303.16 K, 4422 kPa | 725.8
303.16 K, 4433 kPa | 725.9
303.16 K, 4451 kPa | 725.9
303.16 K, 4466 kPa | 725.8
303.16 K, 4480 kPa | 725.9
303.16 K, 4496 kPa | 726
303.16 K, 4508 kPa | 726
303.16 K, 4521 kPa | 725.9
303.16 K, 4534 kPa | 725.9
303.16 K, 4547 kPa | 726
303.16 K, 4563 kPa | 726
303.16 K, 4577 kPa | 726.1
303.16 K, 4593 kPa | 726
303.16 K, 4606 kPa | 726
303.16 K, 4625 kPa | 726
303.16 K, 4643 kPa | 726
303.16 K, 4656 kPa | 726.1
303.16 K, 4675 kPa | 726.1
303.16 K, 4693 kPa | 726.1
303.16 K, 4708 kPa | 726.1
303.16 K, 4723 kPa | 726.1
303.16 K, 4736 kPa | 726.2
303.16 K, 4754 kPa | 726.1
303.16 K, 4774 kPa | 726.2
303.16 K, 4788 kPa | 726.2
303.16 K, 4802 kPa | 726.1
303.16 K, 4819 kPa | 726.2
303.16 K, 4835 kPa | 726.2
303.16 K, 4846 kPa | 726.2
303.16 K, 4858 kPa | 726.3
303.16 K, 4870 kPa | 726.2
303.16 K, 4881 kPa | 726.1
303.16 K, 4893 kPa | 726.1
303.16 K, 4904 kPa | 726.2
303.16 K, 4918 kPa | 726.3
303.16 K, 4931 kPa | 726.3
